# ChEMBL document CHEMBL1201862, “PubChem BioAssay data set” (2004)
# Activity calls are given as the source filed them.
# Key:
# [1] = molecular target: T1, Corticotropin-releasing factor receptor 2/Corticotropin-releasing factor-binding protein (Homo sapiens, UniProt P24387+Q13324); experiment: activators of CRF receptor 2 with binding protein – uHTS hits, confirmation (AID 602473); format: functional; details: read-out: EC50_Mean
# T1 sequence (Q13324 whole entry): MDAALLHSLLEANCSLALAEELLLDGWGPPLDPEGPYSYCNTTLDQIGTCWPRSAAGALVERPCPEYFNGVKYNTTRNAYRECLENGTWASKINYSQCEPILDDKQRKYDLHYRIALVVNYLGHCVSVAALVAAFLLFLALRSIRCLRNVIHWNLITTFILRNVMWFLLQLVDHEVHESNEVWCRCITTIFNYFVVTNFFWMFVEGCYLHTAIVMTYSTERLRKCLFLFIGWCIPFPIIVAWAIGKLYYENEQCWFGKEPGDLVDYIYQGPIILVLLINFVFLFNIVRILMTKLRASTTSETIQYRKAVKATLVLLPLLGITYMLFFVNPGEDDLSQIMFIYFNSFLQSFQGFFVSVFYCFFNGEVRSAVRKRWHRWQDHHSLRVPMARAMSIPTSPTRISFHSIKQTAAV
# T1 sequence (P24387 whole entry): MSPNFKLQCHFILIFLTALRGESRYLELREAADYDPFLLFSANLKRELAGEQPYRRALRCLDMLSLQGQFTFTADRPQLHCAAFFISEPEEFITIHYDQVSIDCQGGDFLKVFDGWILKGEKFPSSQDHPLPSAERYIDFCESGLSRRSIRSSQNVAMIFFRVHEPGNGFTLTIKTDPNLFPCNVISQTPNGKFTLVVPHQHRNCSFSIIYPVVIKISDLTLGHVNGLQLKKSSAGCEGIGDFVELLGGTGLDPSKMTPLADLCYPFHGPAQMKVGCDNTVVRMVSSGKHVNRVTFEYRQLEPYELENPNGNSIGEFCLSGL
# [2] = molecular target: T1, Corticotropin-releasing factor receptor 2/Corticotropin-releasing factor-binding protein; experiment: Dose Response confirmation of uHTS hits for small molecule antagonists of the CRF-binding protein and CRF-R2 receptor complex.; format: functional; details: read-out: IC50_Mean
# [3] = Luminescence Cell-Based Dose Retest to Confirm Inhibitors of Cancer Stem Cells. [Related pubchem assays (depositor defined):AID2717, AID2721]; format: functional; details: Homo sapiens
# [4] = molecular target: T2, Rac GTPase-activating protein 1 (Homo sapiens, UniProt Q9H0H5); experiment: MgcRacGAP GTPase-activating activity inhibitors, confirmation, biochemical, ADP Hunter fluorescence, primary and confirmatory (AID 624330); format: functional
# T2 sequence (Q9H0H5 whole entry): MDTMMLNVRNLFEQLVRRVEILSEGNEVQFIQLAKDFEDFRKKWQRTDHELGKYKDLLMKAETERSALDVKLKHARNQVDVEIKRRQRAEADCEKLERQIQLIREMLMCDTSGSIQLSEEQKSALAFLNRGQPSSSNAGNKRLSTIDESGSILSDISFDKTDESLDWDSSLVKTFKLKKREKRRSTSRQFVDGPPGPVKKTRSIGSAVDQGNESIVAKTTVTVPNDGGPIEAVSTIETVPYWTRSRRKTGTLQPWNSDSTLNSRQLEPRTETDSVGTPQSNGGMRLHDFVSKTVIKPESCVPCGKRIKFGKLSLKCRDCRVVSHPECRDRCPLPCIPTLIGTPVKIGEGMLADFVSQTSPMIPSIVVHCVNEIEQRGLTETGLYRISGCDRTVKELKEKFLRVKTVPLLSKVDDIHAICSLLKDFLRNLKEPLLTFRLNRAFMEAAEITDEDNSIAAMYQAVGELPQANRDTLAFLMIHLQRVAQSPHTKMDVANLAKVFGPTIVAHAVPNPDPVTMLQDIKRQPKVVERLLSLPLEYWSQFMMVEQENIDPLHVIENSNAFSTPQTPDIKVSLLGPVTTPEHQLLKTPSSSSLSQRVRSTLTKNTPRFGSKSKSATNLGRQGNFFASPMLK
# INS1 = experiment: beta cell apoptosis inhibitors, cytokine rescue, dose response, luminescence, retest (AID 449756); format: functional, cell-based; details: Rattus norvegicus;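 further: cell death triggered by IL-1 beta plus TNF-alpha plus IFN-gamma mixture; protective hits raise ATP signal compared with cytokine alone wells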
# cells = format: functional
# Cytochrome P450 1A2 = molecular target: T3, Cytochrome P450 1A2 (Homo sapiens, UniProt P05177);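 further: PubChem cytochrome P450 panel assay, CYP1A2 panel member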
# T3 sequence (P05177 whole entry): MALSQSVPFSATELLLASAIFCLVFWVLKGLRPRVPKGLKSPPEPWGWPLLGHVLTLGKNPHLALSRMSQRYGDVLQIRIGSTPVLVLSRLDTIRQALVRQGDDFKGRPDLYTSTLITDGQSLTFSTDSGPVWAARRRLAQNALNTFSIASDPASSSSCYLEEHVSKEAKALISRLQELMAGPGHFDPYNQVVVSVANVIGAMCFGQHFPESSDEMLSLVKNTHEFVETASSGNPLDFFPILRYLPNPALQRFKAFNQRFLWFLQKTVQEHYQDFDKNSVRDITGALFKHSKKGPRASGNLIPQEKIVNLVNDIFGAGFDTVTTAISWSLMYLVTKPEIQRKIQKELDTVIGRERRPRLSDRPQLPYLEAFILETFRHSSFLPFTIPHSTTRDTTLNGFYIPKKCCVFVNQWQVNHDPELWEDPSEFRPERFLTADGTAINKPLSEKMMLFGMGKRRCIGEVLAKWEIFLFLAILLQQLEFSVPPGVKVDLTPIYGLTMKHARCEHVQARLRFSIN
# Cytochrome P450 3A4 = Cytochrome P450 3A4 (Homo sapiens, UniProt P08684);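 further: CYP3A4 tested as one member of a cytochrome P450 panel screen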
# Chain of Cytochrome P450 3A4 (P08684 whole entry): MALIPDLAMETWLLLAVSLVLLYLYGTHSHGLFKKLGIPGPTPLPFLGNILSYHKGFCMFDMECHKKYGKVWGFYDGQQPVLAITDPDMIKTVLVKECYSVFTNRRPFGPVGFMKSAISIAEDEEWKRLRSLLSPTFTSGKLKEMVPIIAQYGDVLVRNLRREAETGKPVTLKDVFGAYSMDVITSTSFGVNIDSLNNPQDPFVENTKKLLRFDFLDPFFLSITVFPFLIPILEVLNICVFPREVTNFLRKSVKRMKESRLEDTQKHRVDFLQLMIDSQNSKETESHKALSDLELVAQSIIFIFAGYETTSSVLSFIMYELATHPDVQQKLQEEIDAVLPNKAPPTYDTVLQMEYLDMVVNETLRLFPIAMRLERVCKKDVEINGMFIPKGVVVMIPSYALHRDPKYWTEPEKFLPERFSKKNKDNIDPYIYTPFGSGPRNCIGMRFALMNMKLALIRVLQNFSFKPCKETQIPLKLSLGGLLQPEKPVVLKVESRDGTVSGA
# [5] = P. falciparum Dd2 growth inhibitors, dose response, SYBR Green, cherry-picked samples (AID 1159567); format: functional, cell-based
# Cytochrome P450 2C19 = Cytochrome P450 2C19 (Homo sapiens, UniProt P33261); experiment: Cytochrome panel assay with activity outcomes. Panel member name: p450-cyp2c19 Compounds with AC50 equal or less than 10 uM are considered active; format: functional
# Chain of Cytochrome P450 2C19 (P33261 whole entry): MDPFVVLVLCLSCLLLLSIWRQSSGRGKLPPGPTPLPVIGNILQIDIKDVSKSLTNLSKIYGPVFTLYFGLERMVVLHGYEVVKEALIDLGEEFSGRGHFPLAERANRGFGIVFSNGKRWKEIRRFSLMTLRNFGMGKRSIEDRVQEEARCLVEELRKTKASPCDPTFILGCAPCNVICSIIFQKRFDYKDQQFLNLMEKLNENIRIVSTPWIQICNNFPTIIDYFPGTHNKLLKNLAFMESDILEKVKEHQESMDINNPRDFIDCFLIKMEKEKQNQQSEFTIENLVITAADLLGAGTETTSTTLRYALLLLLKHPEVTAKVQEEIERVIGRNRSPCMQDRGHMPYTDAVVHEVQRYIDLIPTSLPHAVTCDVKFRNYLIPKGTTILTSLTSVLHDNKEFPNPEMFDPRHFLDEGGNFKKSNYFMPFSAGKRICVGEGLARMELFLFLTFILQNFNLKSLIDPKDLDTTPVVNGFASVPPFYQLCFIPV
# Streptococcus = experiment: Group A Streptococcus viability loss, dose response, counter-screen for streptokinase expression inhibitor project, luminescence, BacTiterGlo (AID 1915); format: functional, organism-based;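 further: potency for reduction of bacterial viability or growth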
# [6] = tested on: Streptococcus sp. 'group A'; experiment: growth inhibition of control SK(-) GAS strain, dose response, counter-screen for streptokinase expression inhibitor project, luminescence, kanamycin, BacTiterGlo, confirmation (AID 1900); format: functional, organism-based
# Streptokinase A = molecular target: T4, Streptokinase A (Streptococcus pyogenes serotype M1, UniProt P10520); experiment: S. pyogenes streptokinase expression inhibitors, potency, dose response, plasminogen activation absorbance, OD405 (AID 1914); format: functional, Streptococcus pyogenes M1 GAS;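 further: secreted streptokinase activity via plasminogen activation per viability signal from cell pellet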
# T4 sequence (P10520 whole entry): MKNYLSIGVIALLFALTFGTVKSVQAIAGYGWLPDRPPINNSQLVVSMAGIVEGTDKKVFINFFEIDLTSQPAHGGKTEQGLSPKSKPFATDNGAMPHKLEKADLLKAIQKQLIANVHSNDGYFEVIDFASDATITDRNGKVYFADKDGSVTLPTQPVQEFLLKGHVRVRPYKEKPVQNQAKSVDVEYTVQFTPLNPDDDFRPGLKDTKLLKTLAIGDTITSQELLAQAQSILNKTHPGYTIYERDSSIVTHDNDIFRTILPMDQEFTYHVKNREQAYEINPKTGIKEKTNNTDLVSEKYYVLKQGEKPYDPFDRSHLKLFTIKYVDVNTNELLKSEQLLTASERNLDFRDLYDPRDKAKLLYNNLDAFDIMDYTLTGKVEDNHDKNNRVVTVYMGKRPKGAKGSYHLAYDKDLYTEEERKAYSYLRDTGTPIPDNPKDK
# [7] = NIH-3T3 fibroblast cytotoxicity, dose response, cytotoxicity control, cell-based, fluorescence, Alamar Blue, secondary assay (AID 2327); format: functional;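 further: NIH-3T3 mouse fibroblasts cultured with fluconazole at 8 µg/mL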
# Cytochrome P450 2D6 = Cytochrome P450 2D6 (Homo sapiens, UniProt P10635);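 further: CYP2D6 member of a cytochrome P450 panel assay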
# Chain of Cytochrome P450 2D6 (P10635 whole entry): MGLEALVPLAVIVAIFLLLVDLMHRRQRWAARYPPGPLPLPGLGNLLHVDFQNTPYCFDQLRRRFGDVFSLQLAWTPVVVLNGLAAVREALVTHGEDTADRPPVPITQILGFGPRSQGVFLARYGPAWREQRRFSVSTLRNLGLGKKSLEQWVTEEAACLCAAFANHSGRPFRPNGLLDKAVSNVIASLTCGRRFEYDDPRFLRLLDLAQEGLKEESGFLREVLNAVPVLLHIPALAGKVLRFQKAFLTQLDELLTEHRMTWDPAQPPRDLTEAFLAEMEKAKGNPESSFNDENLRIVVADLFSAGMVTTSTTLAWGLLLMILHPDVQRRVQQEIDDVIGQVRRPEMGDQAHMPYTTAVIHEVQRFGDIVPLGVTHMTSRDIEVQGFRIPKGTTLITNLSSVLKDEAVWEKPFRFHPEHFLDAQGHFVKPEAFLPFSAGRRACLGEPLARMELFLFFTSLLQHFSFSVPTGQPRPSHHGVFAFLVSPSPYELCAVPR
compound,measurement,setting,value
COc1ccc(-c2ccc(/C=N/NC(=O)Cc3nnc(N)s3)o2)cc1Cl,EC50,[1],> 53 µM (inactive)
same,IC50,[2],> 47.1 µM (inactive)
C[C@@H](CSc1ccc(Br)cc1)CN1CC[C@H](C(C)(C)C)CCC1=O,AC50,[3],0.315 µM (active)
CCOc1cc(/C=C2\SC(N3CCCC(C)C3)=NC2=O)ccc1O (stereo not given),IC50,[4],26.9 µM (active)
Cc1cccc(N/N=C(/C=O)C(=O)c2cccs2)c1,AC50,[3],2.58 µM (active)
CC1=CC(C)(C)N(S(=O)(=O)c2ccc(F)cc2)c2ccc(C)cc21,AC50,[3],1.42 µM (active)
CCOc1cccc(/C=N/NC(=O)c2cc(C3CC3)[nH]n2)c1O,AC50,[3],5.71 µM (active)
same,AC50,INS1,3.73 µM (active)
Cc1ccc(-c2csc3ncnc(-n4cnc5ccccc54)c23)cc1,AC50,[3],2.81 µM (active)
COc1ccc(C2=CC(c3ccco3)n3ncnc3N2)cc1 (stereo not given),EC50,[1],4.53 µM (active)
COc1ccc(-c2nc3c(c(=O)c4ccccc4n3C)c(=O)n2Cc2ccccc2)cc1,EC50,[1],> 53 µM (inactive)
Cc1ccc(NCCC(=O)c2cccs2)cc1,IC50,cells,10.5 µM (active)
COc1cc(OC)c(OC)cc1CN1CCN(Cc2ccc(SC)cc2)CC1,IC50,[4],66.9 µM (active)
Cc1ccc(C(C)C)c(OCC(=O)OCc2c(C)noc2C)c1,IC50,cells,5.76 µM (active)
COc1cc2c(cc1OC)C(/C=C(\O)c1ccc(OC)c([N+](=O)[O-])c1)=NCC2,EC50,[1],> 53 µM (inactive)
same,IC50,[2],> 47.1 µM (inactive)
COc1ccc(CNCC(=O)Nc2cc(OC)cc(OC)c2)cc1,IC50,[4],123 µM (active)
C[C@@]12CC[C@@H]3c4ccc(O)cc4C[C@H](CCCCCCCCC[S+]([O-])CCCC(F)(F)C(F)(F)F)[C@H]3[C@@H]1CC[C@@H]2O (stereo not given in full),AC50,Cytochrome P450 1A2,31.6 µM (inconclusive)
same,AC50,Cytochrome P450 3A4,1 µM (inconclusive)
COC(=O)c1ccc(N2CCN(CCNC(=O)Nc3ccc(OC)cc3)CC2)cc1,IC50,cells,22.5 µM (active)
CCOC(=O)c1sc(NC(=O)CN(CC(C)C)CC(C)C)c(C(=O)OCC)c1C,EC50,[1],> 53 µM (inactive)
same,IC50,[2],> 47.1 µM (inactive)
CCOC(=O)N/N=C/c1ccc(N(CC)CC)cc1O,IC50,[4],78.5 µM (active)
CCCC#Cc1ccc2c(c1)O[C@H](CN(C)C(=O)c1ccccc1F)[C@@H](C)CN([C@H](C)CO)S2(=O)=O,AC50,[5],4.94 µM (active)
CN(C)c1ncc2nc(-c3cc(F)cc(F)c3)c(=O)n(Cc3cccs3)c2n1,AC50,Cytochrome P450 2C19,inconclusive
same,AC50,Cytochrome P450 1A2,1.58 µM (inconclusive)
same,AC50,Cytochrome P450 3A4,5.01 µM (inconclusive)
N#C/C(=C\c1ccc(N2CCOCC2)o1)c1ccccc1,IC50,[4],47.1 µM (active)
COc1ccc(-c2sc3cc(OC)c(OC)cc3c2-c2ccc(O)cc2)cc1,AC50,[3],1.58 µM (active)
COc1ccc(NC(=O)C(=O)NNC(=O)C(C)Oc2ccc(Cl)cc2Cl)cc1 (stereo not given),EC50,Streptococcus,18.5 µM (active)
same,EC50,[6],4.84 µM (active)
same,EC50,Streptokinase A,> 150 µM (not active)
same,IC50,cells,6.02 µM (active)
Cn1c(SCC(=O)N2CCCc3ccccc32)nnc1-c1ccccc1,EC50,[7],> 160 µM (inactive)
C[C@H](CO)N1C[C@H](C)[C@H](CN(C)CC2CC2)Oc2cc(-c3cccc(C#N)c3)ccc2S1(=O)=O,AC50,[5],3.61 µM (active)
CN(C)C(=O)c1ccc(-c2nccc(NCc3ccccc3)n2)cc1,AC50,Cytochrome P450 2D6,39.8 µM (inconclusive)
same,AC50,Cytochrome P450 1A2,15.8 µM (inconclusive)
same,AC50,Cytochrome P450 3A4,20 µM (inconclusive)
C[C@H](CO)N1C[C@H](C)[C@@H](CN(C)C(=O)Nc2cccc3ccccc23)Oc2ccc(NC(=O)Nc3cccc4ccccc34)cc2CC1=O,AC50,[5],5.57 µM (active)
Cc1cnc(CNc2nc(-c3ccc(C(=O)N(C)C)cc3)nc3ccccc23)cn1,AC50,Cytochrome P450 1A2,25.1 µM (inconclusive)
same,AC50,Cytochrome P450 3A4,15.8 µM (inconclusive)
COc1ccc(NC(=O)N(C)C[C@H]2Oc3cc(-c4ccc(C)cc4)ccc3S(=O)(=O)N([C@H](C)CO)C[C@@H]2C)cc1,AC50,[5],4.83 µM (active)
COc1ccc(C#Cc2ccc([C@H]3[C@H]4CN(C(=O)c5ccc(F)cc5)CC(=O)N4[C@H]3CO)cc2)cc1,AC50,[5],6.95 µM (active)
CN(C)c1ccc(NC(=O)CN2C(=O)c3ccccc3C2=O)cc1,IC50,[4],73.7 µM (active)
CCNC(=S)N/N=C/c1cn(Cc2ccc(F)cc2)c2ccccc12,AC50,[3],24 µM (active)
O=C(Nc1ccn(Cc2ccccc2)n1)c1ccc(F)cc1,IC50,cells,> 50 µM (active)
O=C(OCC(=O)N1CCCc2ccccc21)c1ccc(S(=O)(=O)C(F)F)cc1,IC50,cells,23.3 µM (active)
Cc1ccc(NC(=O)COCC(=O)Nc2ccc(C)cc2)cc1,IC50,cells,22.8 µM (active)
CCc1cc(/C(Cc2ccccn2)=N\O)c(O)cc1O,IC50,[4],31.6 µM (active)
Cc1ccccc1OCCN1CCCC1,IC50,[4],176 µM (active)
